Reference: patent US11813306B2, “Cyclic tetramer compounds as proprotein convertase subtilisin/kexin type 9 (PCSK9) inhibitors for the treatment of metabolic disorders” (NOVARTIS AG, priority 2018, dated 2023)

Target: human PCSK9 (Homo sapiens, UniProt Q8NBP7)
Assay: PCSK9 ligand binding assay (TR-FRET): interference with binding of human PCSK9 to human LDLR
Details: for IC50: Human PCSK9 Alexa Fluor 647 / Human LDLR extracellular domain-Europium Kryptate; for Max % inhibition: efficacy (Amax), 100% = 1 uM unlabeled human PCSK9, 0% = DMSO
How it was run: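 Read-out was TR-FRET ratio (665 nm over 615 nm, 330 nm excitation) between Alexa Fluor 647-human PCSK9 (16 nM added) and Europium Kryptate-human LDLR ectodomain (4 nM added). Compound and PCSK9 were mixed 30 min before LDLR, then incubated 2 h. Inhibition was normalised to DMSO and unlabelled-PCSK9 controls, giving IC50 and Amax.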

human PCSK9, sequence (Q8NBP7 153-692): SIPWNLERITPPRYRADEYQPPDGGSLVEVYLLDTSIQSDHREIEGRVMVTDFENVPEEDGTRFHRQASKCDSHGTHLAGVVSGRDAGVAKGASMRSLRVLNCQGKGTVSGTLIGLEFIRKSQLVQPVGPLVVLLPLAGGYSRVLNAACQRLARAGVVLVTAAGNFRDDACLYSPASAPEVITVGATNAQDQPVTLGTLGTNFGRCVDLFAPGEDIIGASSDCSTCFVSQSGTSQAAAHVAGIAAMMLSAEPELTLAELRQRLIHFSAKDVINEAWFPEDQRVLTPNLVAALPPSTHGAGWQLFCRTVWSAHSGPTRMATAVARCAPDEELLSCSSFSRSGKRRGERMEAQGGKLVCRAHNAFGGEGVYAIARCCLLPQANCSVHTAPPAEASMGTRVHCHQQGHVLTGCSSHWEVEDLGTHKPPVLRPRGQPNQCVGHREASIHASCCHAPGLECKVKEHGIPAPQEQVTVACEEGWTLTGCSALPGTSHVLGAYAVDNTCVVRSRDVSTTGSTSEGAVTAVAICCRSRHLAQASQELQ
human PCSK9, sequence (Q8NBP7 31-152 partner limits assumed): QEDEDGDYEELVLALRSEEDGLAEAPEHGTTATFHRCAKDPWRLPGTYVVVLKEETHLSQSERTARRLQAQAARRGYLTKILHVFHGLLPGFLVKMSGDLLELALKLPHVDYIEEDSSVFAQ

Structure (SMILES) | IC50 [nM] | Max % inhibition [%]
COC[C@@H]1NC(=O)[C@H](C)N(Cc2c(F)cc(Cl)cc2Oc2ccc(-c3cnc(CN(C)C(C)(C)C)n3C)cc2)C(=O)C[C@@H](CC(F)(F)F)C(=O)N2CCC[C@@](Cc3ccc(Cl)cc3)(C2)N(C)C1=O [Compound 141, (3S, 7S, 10S, 13R)-6-(2-(4-(2-((tert-butyl(methyl)amino)methyl)-1-methyl-1H-imidazol-5-yl)phenoxy)-4-chloro-6-fluorobenzyl)-13-(4-chlorobenzyl)-10-(methoxymethyl)-7,12-dimethyl-3-(2,2,2-trifluoroethyl)-1,6,9,12-tetraazabicyclo[11.3.1]heptadecane-2,5,8,11-tetraone] | 1.78 | 112.3
COC[C@@H]1NC(=O)[C@H](C)N(Cc2c(F)cc(Cl)cc2Oc2ccc(-c3cnc(CN(C)C)n3C)cc2)C(=O)C[C@@H](CC(F)(F)F)C(=O)N2CCC[C@@](Cc3ccc(Cl)cc3)(C2)N(C)C1=O [Compound 22, (3S,7S,10S,13R)-6-(4-Chloro-2-(4-(2-((dimethylamino)methyl)-1-methyl-1H-imidazol-5-yl)phenoxy)-6-fluorobenzyl)-13-(4-chlorobenzyl)-10-(methoxymethyl)-7,12-dimethyl-3-(2,2,2-trifluoroethyl)-1,6,9,12-tetraazabicyclo[11.3.1]heptadecane-2,5,8,11-tetraone] | 0.159 | 101.9
CC[C@@H]1CC(=O)N(Cc2ccc(Cl)cc2Oc2ccc(-c3cnc(CN4CCCC4)n3C)cc2)[C@@H](C)C(=O)N[C@@H](CO)C(=O)N[C@@]2(Cc3ccc(Cl)cc3)CCCN(C2)C1=O [Compound 26, (3R, 7S, 10S, 13R)-6-(4-chloro-2-(4-(1-methyl-2-(pyrrolidin-1-ylmethyl)-1H-imidazol-5-yl)phenoxy)benzyl)-13-(4-chlorobenzyl)-3-ethyl-10-(hydroxymethyl)-7-methyl-1,6,9,12-tetraazabicyclo[11.3.1]heptadecane-2,5,8,11-tetraone] | 0.48 | 98.3
CNCc1ncc(-c2ccc(Oc3cc(Cl)cc(F)c3CN3C(=O)C[C@@H](CC(F)(F)F)C(=O)N4CCC[C@@](Cc5ccc(Cl)cc5)(C4)N(C)C(=O)[C@H](COC)NC(=O)[C@@H]3C)cc2)n1C [Compound 172, (3S, 7S, 10S, 13R)-6-(4-chloro-2-fluoro-6-(4-(1-methyl-2-((methylamino)methyl)-1H-imidazol-5-yl)phenoxy)benzyl)-13-(4-chlorobenzyl)-10-(methoxymethyl)-7,12-dimethyl-3-(2,2,2-trifluoroethyl)-1,6,9,12-tetraazabicyclo[11.3.1]heptadecane-2,5,8,11-tetraone] | 0.57 | 104.8
COC[C@@H]1NC(=O)[C@H](C)N(Cc2ncc(Cl)cc2Oc2ccc(-c3cnc(CN(C)C)n3C)cc2)C(=O)C[C@@H](CC(F)(F)F)C(=O)N2CCC[C@@](Cc3ccc(Cl)cc3)(C2)NC1=O [Compound 29, (3S, 7S, 10S, 13R)-6-((5-chloro-3-(4-(2-((dimethylamino)methyl)-1-methyl-1H-imidazol-5-yl)phenoxy)pyridin-2-yl)methyl)-13-(4-chlorobenzyl)-10-(methoxymethyl)-7-methyl-3-(2,2,2-trifluoroethyl)-1,6,9,12-tetraazabicyclo[11.3.1]heptadecane-2,5,8,11-tetraone] | 0.97 | 119.8
COC[C@@H]1NC(=O)[C@H](C)N(Cc2c(F)cc(Cl)cc2Oc2ccc(-c3cnc(CN4CCCC4)n3C)cc2)C(=O)C[C@@H](Cc2cccc(C)n2)C(=O)N2CCC[C@@](Cc3ccc(Cl)cc3)(C2)N(C)C1=O [Compound 14] | 0.632 | 102.7
C[C@H]1C(=O)N[C@@H](CO)C(=O)N[C@@]2(Cc3ccc(Cl)cc3)CCCN(C2)C(=O)[C@H](CC(F)(F)F)CC(=O)N1Cc1c(F)cc(Cl)cc1Oc1ccc(-c2cnc(CN3CCCC3)n2C)cc1 [Compound 15, (3S, 7S, 10S, 13R)-6-(4-chloro-2-fluoro-6-(4-(1-methyl-2-(pyrrolidin-1-ylmethyl)-1H-imidazol-5-yl)phenoxy)benzyl)-13-(4-chlorobenzyl)-10-(hydroxymethyl)-7-methyl-3-(2,2,2-trifluoroethyl)-1,6,9,12-tetraazabicyclo[11.3.1]heptadecane-2,5,8,11-tetraone] | 0.342 | 119.0

Further lines, results first:

IC50 [nM] | Max % inhibition [%] | Structure (SMILES)
0.509 | 101.6 | C[C@H]1C(=O)N[C@@H](CO)C(=O)N[C@@]2(Cc3ccc(Cl)cc3)CCCN(C2)C(=O)[C@H](Cc2c(F)cccc2F)CC(=O)N1Cc1c(F)cc(Cl)cc1Oc1ccc(-c2cnc(CN(C)C)n2C)cc1 [Compound 34, (3R, 7S, 10S, 13R)-6-(4-chloro-2-(4-(2-((dimethylamino)methyl)-1-methyl-1H-imidazol-5-yl)phenoxy)-6-fluorobenzyl)-13-(4-chlorobenzyl)-3-(2,6-difluorobenzyl)-10-(hydroxymethyl)-7-methyl-1,6,9,12-tetraazabicyclo[11.3.1]heptadecane-2,5,8,11-tetraone]
0.347 | 112.4 | C[C@H]1C(=O)N[C@@H](CO)C(=O)N[C@@]2(Cc3ccc(Cl)cc3)CCCN(C2)C(=O)[C@H](CC(F)(F)F)CC(=O)N1Cc1ccc(Cl)cc1Oc1ccc(-c2cnc(CN(C)C)n2C)cc1 [Compound 83, (3S,7S,10S,13R)-6-(4-Chloro-2-(4-(2-((dimethylamino)methyl)-1-methyl-1H-imidazol-5-yl)phenoxy)benzyl)-13-(4-chlorobenzyl)-10-(hydroxymethyl)-7-methyl-3-(2,2,2-trifluoroethyl)-1,6,9,12-tetraazabicyclo[11.3.1]heptadecane-2,5,8,11-tetraone]
0.673 | 104.2 | C[C@H]1C(=O)N[C@@H](CO)C(=O)N[C@@]2(Cc3ccc(Cl)cc3)CCCN(C2)C(=O)[C@H](Cc2cccc[n+]2[O-])CC(=O)N1Cc1ccc(Cl)cc1Oc1ccc(-c2cnc(CN(C)C)n2C)cc1 [Compound 66, 2-(((3R,7S,10S,13R)-6-(4-Chloro-2-(4-(2-((dimethylamino)methyl)-1-methyl-1H-imidazol-5-yl)phenoxy)benzyl)-13-(4-chlorobenzyl)-10-(hydroxymethyl)-7-methyl-2,5,8,11-tetraoxo-1,6,9,12-tetraazabicyclo[11.3.1]heptadecan-3-yl)methyl)pyridine 1-oxide]
0.624 | 109.4 | C[C@H]1C(=O)N[C@@H](CO)C(=O)N[C@@]2(Cc3ccc(Cl)cc3)CCCN(C2)C(=O)[C@H](Cc2ccccc2)CC(=O)N1Cc1cc(F)c(Cl)cc1Oc1ccc(-c2cnc(CN(C)C)n2C)cc1 [Compound 54, (3R, 7S, 10S, 13R)-3-benzyl-6-(4-chloro-2-(4-(2-((dimethylamino)methyl)-1-methyl-1H-imidazol-5-yl)phenoxy)-5-fluorobenzyl)-13-(4-chlorobenzyl)-10-(hydroxymethyl)-7-methyl-1,6,9,12-tetraazabicyclo[11.3.1]heptadecane-2,5,8,11-tetraone]
0.334 | 104.2 | CC(C)[C@@H]1NC(=O)N(Cc2ccc(Cl)cc2Oc2ccc(-c3cnc(CN(C)C)n3C)cc2)[C@@H](C)C(=O)N[C@@H](CO)C(=O)N[C@@]2(Cc3ccc(Cl)cc3)CCCN(C2)C1=O.Cl [Compound 67, (3S, 7S, 10S, 13R)-6-(4-chloro-2-(4-(2-((dimethylamino)methyl)-1-methyl-1H-imidazol-5-yl)phenoxy)benzyl)-13-(4-chlorobenzyl)-10-(hydroxymethyl)-3-isopropyl-7-methyl-1,4,6,9,12-pentaazabicyclo[11.3.1]heptadecane-2,5,8,11-tetraone]
